The record followed here is patent US9856279B2 (AGIOS PHARMACEUTICALS, INC, priority 2011, dated 2018).

The test system of one assay is U87MG cells. Description: Cellular assay for IDH1m inhibitors: inhibition of 2-HG production (LC-MS, 48 hours) in U87MG cells. Type of assay: cell-based. To be noted: Homo sapiens, U-87 MG, inhibition of 2-HG production, U87R132H cells; read-out: U87R132H IC50. The method, boiled down: (§1)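 The read-out is 2-HG in culture medium, measured by LC-MS after 48 h of compound exposure (0.2% DMSO) in cells plated overnight at 5000 per well in DMEM/10% FBS. IC50 is 50% reduction relative to DMSO wells. Luminescent viability (Cell Titer Glo) followed at 72 h.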

In a further assay the test system is HT1080 cells. Description: Cellular assay for IDH1m inhibitors: inhibition of 2-HG production (LC-MS, 48 hours) in HT1080 cells. Type of assay: cell-based. The settings on record: Homo sapiens, HT-1080; inhibition of 2-HG production, HT1080 cells; read-out: HT1080 IC50. A digest of the protocol: as §1
The next assay concerns the target IDH1 R132H (Homo sapiens, UniProt O75874, R132H). Description: Assay for IDH1 R132H inhibitors (NADPH/aKG, resazurin detection). Type of assay: biochemical. The settings on record: enzyme assay of Example 12; read-out: IDH1R132H IC50. The method, boiled down: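 Compound added to substrate mix (8 uM NADPH, 2 mM aKG), then enzyme mix (0.2 μg/ml IDH1 R132H); 50 min RT in 20 mM Tris pH 7.5, 150 mM NaCl, 10 mM MgCl2, 0.03% BSA. Resazurin detection mix (30 μM) 5 min RT; resorufin fluorescence Ex544/Em590.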
(Resazurin is reduced to fluorescent resorufin, in cell work by metabolically active cells.)

Sequence of IDH1 R132H (O75874 whole entry R132H): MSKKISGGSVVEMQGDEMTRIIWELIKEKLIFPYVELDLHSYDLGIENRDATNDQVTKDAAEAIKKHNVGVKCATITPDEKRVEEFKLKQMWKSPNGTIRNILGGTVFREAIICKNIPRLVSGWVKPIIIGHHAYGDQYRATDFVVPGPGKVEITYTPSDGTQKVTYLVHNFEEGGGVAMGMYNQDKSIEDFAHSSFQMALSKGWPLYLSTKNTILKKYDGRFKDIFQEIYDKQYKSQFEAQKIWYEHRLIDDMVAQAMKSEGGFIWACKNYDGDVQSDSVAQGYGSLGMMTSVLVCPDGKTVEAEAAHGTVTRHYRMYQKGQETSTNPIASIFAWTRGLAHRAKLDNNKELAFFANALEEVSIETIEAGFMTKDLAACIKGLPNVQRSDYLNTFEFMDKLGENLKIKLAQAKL

In general, IC50 refers to the point on the concentration scale where inhibition reaches its midpoint. `C=Cc1cc2c(-c3cc(C#N)c(N4CCN(C(=O)C5CC5)[C@H](C5CC5)C4)nc3C3CC3)cccc2cn1` [Compound 565, (R)-2-(4-(cyclopropanecarbonyl)-3-cyclopropylpiperazin-1-yl)-6-cyclopropyl-5-(3-vinylisoquinolin-5-yl)nicotinonitrile]: the IC50 is 500 to 1000 nM with U87MG cells, 500 to 1000 nM in the assay with HT1080 cells and less than 500 nM at IDH1 R132H.
Consider `COCCC(=O)N1CCN(c2nc(C3CC3)c(-c3ccccc3OC(F)(F)F)cc2C#N)C[C@H]1C(C)C` [Compound 276, (R)-6-cyclopropyl-2-(3-isopropyl-4-(3-methoxypropanoyl)piperazin-1-yl)-5-(2-(trifluoromethoxy)phenyl)nicotinonitrile], for which the IC50 in the assay with U87MG cells is 1000 to 10000 nM; in the assay with HT1080 cells, 1000 to 10000 nM; at IDH1 R132H, less than 500 nM.
`C=Cc1cnnc(Nc2cc(C#N)c(N3CCN(C(=O)CCOC)[C@H](C4CC4)C3)nc2C2CC2)c1` [Compound 775, (R)-6-cyclopropyl-2-(3-cyclopropyl-4-(3-methoxypropanoyl)piperazin-1-yl)-5-((5-vinylpyridazin-3-yl)amino)nicotinonitrile]: the IC50 in the assay with U87MG cells, with HT1080 cells and on IDH1 R132H was less than 500 nM each time.
For `C=Cc1cc(-c2cc(C#N)c(N3CCN(C(=O)CCOC)[C@H](C)C3)nc2C2CC2)ncn1` [Compound 597, (R)-6-cyclopropyl-2-(4-(3-methoxypropanoyl)-3-methylpiperazin-1-yl)-5-(6-vinylpyrimidin-4-yl)nicotinonitrile], the half-inhibitory concentration (IC50) in the assay on U87MG cells, in the assay with HT1080 cells and on IDH1 R132H was less than 500 nM throughout.
Turning to `COCCC(=O)N1CCN(c2nc(C3CC3)c(-c3ccc(F)c(Cl)c3)c(C)c2C#N)C[C@H]1C` [Compound 271, (R)-5-(3-chloro-4-fluorophenyl)-6-cyclopropyl-2-(4-(3-methoxypropanoyl)-3-methylpiperazin-1-yl)-4-methylnicotinonitrile], the IC50 in the assay on U87MG cells is 1000 to 10000 nM; in the assay with HT1080 cells, 1000 to 10000 nM; at IDH1 R132H, less than 500 nM.
`COCCC(=O)N1CCN(c2nc(C3CC3)c(-c3ccc(F)cc3)c(C)c2C#N)C[C@H]1C1CC1` [Compound 299, (R)-6-cyclopropyl-2-(3-cyclopropyl-4-(3-methoxypropanoyl)piperazin-1-yl)-5-(4-fluorophenyl)-4-methylnicotinonitrile]: the IC50 in the assay on U87MG cells was 500 to 1000 nM; in the assay on HT1080 cells, 500 to 1000 nM; on IDH1 R132H, less than 500 nM.
For `C=Cc1cnnc(-c2c(C3CC3)nc(N3CCN(C(=O)OC(C)(C)C)[C@H](C4CC4)C3)c(C#N)c2C)c1` [Compound 771, (R)-tert-butyl 4-(3-cyano-6-cyclopropyl-4-methyl-5-(5-vinylpyridazin-3-yl)pyridin-2-yl)-2-cyclopropylpiperazine-1-carboxylate], the IC50 with U87MG cells, with HT1080 cells and on IDH1 R132H was less than 500 nM in each case.
On to `C=Cc1cc(-c2cc(C#N)c(N3CCN(C(=O)COC)[C@H](C4CC4)C3)nc2C2CC2)c2ccncc2n1` [Compound 717, (R)-6-cyclopropyl-2-(3-cyclopropyl-4-(2-methoxyacetyl)piperazin-1-yl)-5-(2-vinyl-1,7-naphthyridin-4-yl)nicotinonitrile], for which the IC50 in the assay on U87MG cells, in the assay with HT1080 cells and at IDH1 R132H was less than 500 nM each time.
As for `C=Cc1cc(-c2c(C3CC3)nc(N3CCN(C(=O)CC4CCC(=O)O4)[C@H](C4CC4)C3)c(C#N)c2C)ccn1` (stereo partly drawn) [Compound 806, 2-cyclopropyl-6-((3R)-3-cyclopropyl-4-(2-(5-oxotetrahydrofuran-2-yl)acetyl)piperazin-1-yl)-4-methyl-2′-vinyl-[3,4′-bipyridine]-5-carbonitrile], the IC50 with U87MG cells, in the assay with HT1080 cells and at IDH1 R132H was less than 500 nM each time.
Regarding `C=Cc1cc(-c2cc(C#N)c(N3CCN(C(=O)CCO)[C@@H](C4CC4)C3)nc2C2CC2)ccn1` [Compound 587, (S)-2-cyclopropyl-6-(3-cyclopropyl-4-(3-hydroxypropanoyl)piperazin-1-yl)-2′-vinyl-[3,4′-bipyridine]-5-carbonitrile], the IC50 in the assay with U87MG cells, with HT1080 cells and at IDH1 R132H was less than 500 nM in each case.
As for `COCCC(=O)N1CCN(c2nc(C3CC3)c(-c3ccc4c(c3)OCO4)c(C)c2C#N)C[C@H]1C` [Compound 269, (R)-5-(benzo[d][1,3]dioxol-5-yl)-6-cyclopropyl-2-(4-(3-methoxypropanoyl)-3-methylpiperazin-1-yl)-4-methylnicotinonitrile], the half-maximal inhibitory concentration (IC50) in the assay with U87MG cells is 1000 to 10000 nM; in the assay on HT1080 cells, 1000 to 10000 nM; on IDH1 R132H, less than 500 nM.
`C=Cc1cc(-c2c(C3CC3)nc(N3CCN(C(=O)CCC4CCCC4)[C@H](C4CC4)C3)c(C#N)c2C)ccn1` [Compound 797, (R)-6-(4-(3-cyclopentylpropanoyl)-3-cyclopropylpiperazin-1-yl)-2-cyclopropyl-4-methyl-2′-vinyl-3,4′-bipyridine-5-carbonitrile]: the IC50 in the assay with U87MG cells, in the assay on HT1080 cells and at IDH1 R132H was less than 500 nM each time.
Consider `C=Cc1cc(-c2cc(C#N)c(N3CCN(C(=O)CC(F)(F)F)[C@H](C)C3)nc2C2CC2)ccn1` [Compound 444, (R)-2-cyclopropyl-6-(3-methyl-4-(3,3,3-trifluoropropanoyl)piperazin-1-yl)-2′-vinyl-3,4′-bipyridine-5-carbonitrile], for which the IC50 in the assay on U87MG cells, in the assay with HT1080 cells and on IDH1 R132H was less than 500 nM each time.
As for `COCCC(=O)N1CCN(c2nc(C3CC3)c(-c3cnc4[nH]ccc4c3)cc2C#N)C[C@H]1C` [Compound 374, (R)-6-cyclopropyl-2-[4-(3-methoxy-propionyl)-3-methyl-piperazin-1-yl]-5-(1H-pyrrolo[2,3-b]pyridin-5-yl)-nicotinonitrile], the IC50 with U87MG cells was 500 to 1000 nM; in the assay with HT1080 cells it was 1000 to 10000 nM; on IDH1 R132H it was less than 500 nM.
Take `C=Cc1cnnc(-c2cc(C#N)c(N3CCN(C(=O)COC)[C@H](C4CC4)C3)nc2C2CC2)c1` [Compound 724, (R)-6-cyclopropyl-2-(3-cyclopropyl-4-(2-methoxyacetyl)piperazin-1-yl)-5-(5-vinylpyridazin-3-yl)nicotinonitrile]: the IC50 with U87MG cells, in the assay with HT1080 cells and on IDH1 R132H was less than 500 nM in each case.
As to `C=Cc1cnnc(-c2cc(C#N)c(N3CCN(C(=O)C4CC4)[C@H](C4CC4)C3)nc2C2CC2)c1` [Compound 696, (R)-2-(4-(cyclopropanecarbonyl)-3-cyclopropylpiperazin-1-yl)-6-cyclopropyl-5-(5-vinylpyridazin-3-yl)nicotinonitrile], the IC50 with U87MG cells, in the assay with HT1080 cells and at IDH1 R132H was less than 500 nM in each case.
For `C=CC(=O)Nc1cccc(-c2cc(C#N)c(N3CCN(C(=O)C4CC4)[C@H](C4CC4)C3)nc2C2CC2)c1` [Compound 454, (R)—N-(3-(5-cyano-6-(4-(cyclopropanecarbonyl)-3-cyclopropylpiperazin-1-yl)-2-cyclopropylpyridin-3-yl)phenyl)acrylamide], the IC50 in the assay on U87MG cells, in the assay on HT1080 cells and at IDH1 R132H was less than 500 nM each time.
Consider `C=Cc1cc(-c2cc(C#N)c(N3CCN(C(=O)CCOC)[C@H](C)C3)nc2C2CC2)c2ccncc2n1` [Compound 580, (R)-6-cyclopropyl-2-(4-(3-methoxypropanoyl)-3-methylpiperazin-1-yl)-5-(2-vinyl-1,7-naphthyridin-4-yl)nicotinonitrile], for which the IC50 with U87MG cells, with HT1080 cells and on IDH1 R132H was less than 500 nM throughout.
As to `COCCC(=O)N1CCN(c2nc(C3CC3)c(-c3cccc(CCO)c3)cc2C#N)C[C@H]1C` [Compound 297, (R)-6-cyclopropyl-5-(3-(2-hydroxyethyl)phenyl)-2-(4-(3-methoxypropanoyl)-3-methylpiperazin-1-yl)nicotinonitrile], the values for the IC50 in the assay with U87MG cells, in the assay on HT1080 cells and on IDH1 R132H were 1000 to 10000 nM, 500 to 1000 nM and less than 500 nM, respectively.
On the same counts, the results for `COCCC(=O)N1CCN(c2nc(C3CC3)c(OCc3ccc(CO)cc3)cc2C#N)C[C@H]1C` [Compound 301, (R)-6-cyclopropyl-5-(4-(hydroxymethyl)benzyloxy)-2-(4-(3-methoxypropanoyl)-3-methylpiperazin-1-yl)nicotinonitrile] are 1000 to 10000 nM, 1000 to 10000 nM and less than 500 nM.
For `C=Cc1ncc2c(-c3cc(C#N)c(N4CCN(C(=O)C5CC5)[C@H](C5CC5)C4)nc3C3CC3)cccc2n1` [Compound 636, (R)-2-(4-(cyclopropanecarbonyl)-3-cyclopropylpiperazin-1-yl)-6-cyclopropyl-5-(2-vinylquinazolin-5-yl)nicotinonitrile] the same measures were less than 500 nM, less than 500 nM and less than 500 nM.
On the same counts, the results for `COCCC(=O)N1CCN(c2nc(C3CC3)c(-c3ccc(NS(C)(=O)=O)cc3)c(C)c2C#N)C[C@H]1C` [Compound 380, (R)—N-(4-{5-cyano-2-cyclopropyl-6-[4-(3-methoxy-propionyl)-3-methyl-piperazin-1-yl]-4-methyl-pyridin-3-yl}-phenyl)-methane sulfonamide] are 500 to 1000 nM, 500 to 1000 nM and less than 500 nM.
